Measured values as given in publication PMC6222820, “Synthesis of New Triarylpyrazole Derivatives Possessing Terminal Sulfonamide Moiety and Their Inhibitory Effects on PGE2 and Nitric Oxide Productions in Lipopolysaccharide-Induced RAW 264.7 Macrophages” (Molecules : A Journal of Synthetic Chemistry and Natural …, 2018).
Entries after “also recorded” stand apart in the source; their conditions may differ.

Columns and labels:
[1] = target: T1, iNOS (Mus musculus, UniProt P29477); experiment: iNOS enzyme activity in LPS-pretreated cells (Griess reaction); format: cell-based; details: 5, 10, or 20 μM for 12 h after LPS (1 µg/mL) 12 h
T1 construct: endogenous in cells; host or cells: RAW 264.7 macrophages, LPS-stimulated
Description: Figure 4 Effect of compounds 1b, 1d, 1g, 2a, and 2c on iNOS activity. Following pretreatment with lipopolysaccharide (LPS, 1 µg/mL) for 12 h and wash with phosphate buffer solution (PBS), cells were treated with 1g (5, 10, or 20 μM) for 12 h N^6-(1-Iminoethyl)-L-lysine. (L-NIL) (40 μM) was used as the positive control in the assay. Levels of NO in culture media were quantified using the Griess reaction assay. Data are presented as the means ± SD of three independent experiments. # p < 0.05 versus the control cells; *** p < 0.001 versus LPS-stimulated cells; * statistical significances were compared using ANOVA and Dunnett’s post hoc test.

[2] = system: LPS-induced RAW 264.7 macrophages; experiment: PGE2 production inhibition in LPS-induced RAW 264.7 macrophages; format: cell-based; details: means ± SD of three independent experiments; for inhibition at 1 µM: RAW264.7, 1 μM; for inhibition at 5 µM: RAW264.7, 5 μM; for inhibition at 10 µM: RAW264.7, 10 μM
Description: Compounds 1b, 1g, 2a, and 2c were able to inhibit more than 50% of the prostaglandin production at a dose 5 μM. The five compounds were able to reduce PGE2 production by over 75% at a dose of 10 μM.
(§1) Cell culture and sample treatment were performed as reported in the literature. The 3-(4,5-dimethylthiazol-2-yl)-2,5-diphenyltetrazolium bromide (MTT) assay for cell viability followed the procedure previously described in the literature. Nitrite determination was carried as described in the literature, and the PGE2 assay was carried as previously described.

[3] = system: inducible nitric oxide synthase (iNOS); experiment: LPS-induced iNOS protein expression (SDS-PAGE / immunoblot of cellular lysates); format: cell-based; details: 20 µM; pretreatment 1 h, then LPS (1 μg/mL) 24 h; β-actin reference
Description: As a result of their activity against both NO and PGE2 production and low cellular toxicity, compounds 1b, 1d, 1g, 2a, and 2c were tested for their inhibitory effect on the expression of both iNOS and COX-2. The cellular lysates were prepared from the with- and without-pretreatment tested compounds (5, 10, 20 μM) for one hour and then with LPS (1 μg/mL) for 24 h, using β-actin as a reference. […] Compound 1g might express its inhibitory effect on NO production mainly through inhibition of iNOS protein expression and partially through inhibition of iNOS enzyme activity.
Figure 3 Inhibitory activity of compounds 1b, 1d, 1g, 2a, and 2c on inducible nitric oxide synthase (iNOS) and Cyclooxygenase 2 (COX-2) Cellular lysates were prepared from the with/without pretreatment tested compound (5, 10, and 20 μM) for one hour and then with LPS (1 μg/mL) for 24 h. Total cellular proteins were resolved by sodium dodecyl sulphate-polyacrylamide gel electrophoresis (SDS-PAGE), transferred to Polyvinylidene fluoride (PVDF) membranes, and detected with specific iNOS and COX-2 antibodies. β-actin was used as an internal control.

[4] = system: LPS-induced RAW 264.7 macrophages; experiment: Nitric oxide (NO) production inhibition in LPS-induced RAW 264.7 macrophages (nitrite determination); format: cell-based; details: for inhibition at 1 µM: RAW264.7, 1 µM; for inhibition at 1 µM / inhibition at 5 µM / inhibition at 10 µM: LPS-induced RAW 264.7 macrophages; for inhibition at 5 µM: RAW264.7, 5 µM; for inhibition at 10 µM: RAW264.7, 10 µM; for IC50: means ± SD of three independent experiments, read-out: NO (IC50)
Description: The ability of a certain molecule to inhibit the production of inflammatory mediator(s) is one of successful approach to treatment both chronic and acute inflammation.
as §1

[5] = MTT assay for cell viability / cytotoxicity; format: cell-based; details: mouse, RAW 264.7 macrophages, means ± SD of three independent experiments
Description: In addition to NO inhibition, the cytotoxic activity of compounds 1a–i, 2a–i, 3a–h, and 4a–h in RAW 264.7 macrophages were measured using the 3-(4,5-dimethylthiazol-2-yl)-2,5-diphenyltetrazolium bromide (MTT) assay to check whether the effects on the production of NO was caused by nonspecific cytotoxicity.
as §1

[6] = Mus musculus, RAW264.7, LPS-induced RAW 264.7 macrophages
[7] = Mus musculus, RAW264.7, nitric oxide production

Row | IC50 ([2]; LPS-induced RAW 264.7 macrophages) [µM] | IC50 [2, 6] [µM] | IC50 [4, 7] [µM] | melting point [°C] | IC50 ([4]; nitric oxide production) [µM] | Structure (SMILES) | Inhibition of iNOS enzyme activity [1] | inhibition at 1 µM ([2]; Mus musculus) [%] | inhibition at 5 µM ([2]; Mus musculus) [%] | inhibition at 10 µM ([2]; Mus musculus) [%] | Inhibition of iNOS expression [3] | inhibition at 1 µM ([4]; Mus musculus) [%] | inhibition at 5 µM ([4]; Mus musculus) [%] | inhibition at 10 µM ([4]; Mus musculus) [%] | IC50 [5] [µM]
1 |  |  | 8.86 ± 0.36 | 154 to 156 |  | O=S(=O)(NCCCNc1cc(-c2cn(-c3ccccc3)nc2-c2cccc(O)c2)ccn1)c1ccccc1 [Compound 4a, N-(3-((4-(3-(3-Hydroxyphenyl)-1-phenyl-1H-pyrazol-4-yl)pyridin-2-yl)amino)propyl)benzenesulfonamide] |  |  |  |  |  | 11.11 ± 0.1 | 24.1 ± 0.56 | 59.2 ± 1.31 | 16.6 ± 0.91
2 |  |  | 13.2 ± 0.52 | 166 to 168 |  | O=S(=O)(NCCCNc1cc(-c2cn(-c3ccccc3)nc2-c2cccc(O)c2)ccn1)c1ccc(Cl)cc1 [Compound 4c, 4-Chloro-N-(3-((4-(3-(3-hydroxyphenyl)-1-phenyl-1H-pyrazol-4-yl)pyridin-2-yl)amino)propyl)benzenesulfonamide] |  |  |  |  |  | 0.86 ± 0.09 | 22 ± 0.42 | 47 ± 1.34 | 18.8 ± 0.68
3 |  |  | 8.82 ± 0.32 | 158 to 160 |  | Cc1ccc(S(=O)(=O)NCCCNc2cc(-c3cn(-c4ccccc4)nc3-c3cccc(O)c3)ccn2)cc1 [Compound 4e, N-(3-((4-(3-(3-Hydroxyphenyl)-1-phenyl-1H-pyrazol-4-yl)pyridin-2-yl)amino)propyl)-4-methylbenzenesulfonamide] |  |  |  |  |  | 0.69 ± 0.01 | 18.6 ± 0.98 | 59.7 ± 0.7 | 23 ± 0.63
4 |  |  | 8.24 ± 0.41 | 120 to 122 |  | O=S(=O)(NCCCNc1cc(-c2cn(-c3ccccc3)nc2-c2cccc(O)c2)ccn1)c1cccc(F)c1 [Compound 4g, 3-Fluoro-N-(3-((4-(3-(3-hydroxyphenyl)-1-phenyl-1H-pyrazol-4-yl)pyridin-2-yl)amino)propyl)benzenesulfonamide] |  |  |  |  |  |  | 29.5 ± 0.86 | 51.1 ± 1.45 | 9.35 ± 0.32
5 |  | 0.00625 |  |  |  | CS(=O)(=O)Nc1ccc([N+](=O)[O-])cc1OC1CCCCC1 [NS-398, N-(2-cyclohexyloxy-4-nitrophenyl)methanesulfonamide, reference compound] |  | 90.53 ± 0.53 | 95.78 ± 0.67 | 98.2 ± 1.5 |  |  |  |  | 

Continued, molecule first:

Row | Structure (SMILES) | IC50 ([2]; LPS-induced RAW 264.7 macrophages) [µM] | IC50 [2, 6] [µM] | IC50 [4, 7] [µM] | melting point [°C] | IC50 ([4]; nitric oxide production) [µM] | Inhibition of iNOS enzyme activity [1] | inhibition at 1 µM ([2]; Mus musculus) [%] | inhibition at 5 µM ([2]; Mus musculus) [%] | inhibition at 10 µM ([2]; Mus musculus) [%] | Inhibition of iNOS expression [3] | inhibition at 1 µM ([4]; Mus musculus) [%] | inhibition at 5 µM ([4]; Mus musculus) [%] | inhibition at 10 µM ([4]; Mus musculus) [%] | IC50 [5] [µM]
6 | COc1cccc(-c2nn(-c3ccccc3)cc2-c2ccnc(NCCNS(=O)(=O)c3ccc(Br)cc3)c2)c1 [Compound 1b, 4-Bromo-N-(2-((4-(3-(3-methoxyphenyl)-1-phenyl-1H-pyrazol-4-yl)pyridin-2-yl)amino)ethyl)benzenesulfonamide] | 4.75 ± 0.25 | 4.72 | 7.9 ± 0.41 | 136 to 138 |  | slightly inhibited iNOS enzyme activity in a dose-dependent manner | 16.2 ± 0.79 | > 50 | 76.9 ± 1.34 | partial inhibitory effect; also recorded: potential iNOS inhibitory effect | 12.05 ± 0.11 | 24.2 ± 0.98 | 68.7 ± 2.47 | 254.2 ± 2.54
7 | COc1cccc(-c2nn(-c3ccccc3)cc2-c2ccnc(NCCNS(=O)(=O)c3ccc(F)cc3)c2)c1 [Compound 1d, 4-Fluoro-N-(2-((4-(3-(3-methoxyphenyl)-1-phenyl-1H-pyrazol-4-yl)pyridin-2-yl)amino)ethyl)benzenesulfonamide] |  | 5.06 ± 0.21 | 8.2 | 155 to 156 | 8.23 ± 0.32 | slightly inhibited iNOS enzyme activity in a dose-dependent manner | 10.3 ± 0.81 | 49.6 ± 1.25 | 85.8 ± 2.64 | partial inhibitory effect; also recorded: potential iNOS inhibitory effect | 19.79 ± 0.14 | 29.4 ± 0.77 | 61.3 ± 1.33 | 169.2 ± 1.64
8 | COc1cccc(-c2nn(-c3ccccc3)cc2-c2ccnc(NCCNS(=O)(=O)c3ccc(C(F)(F)F)cc3)c2)c1 [Compound 1g, N-(2-((4-(3-(3-Methoxyphenyl)-1-phenyl-1H-pyrazol-4-yl)pyridin-2-yl)amino)ethyl)-4-(trifluoromethyl)benzenesulfonamide] |  | 4.55 ± 0.39 | 8.55 ± 0.14 |  |  | slightly inhibited iNOS enzyme activity in a dose-dependent manner | 19.9 ± 0.89 | > 50 | 79.3 ± 2.19 | complete inhibition; also recorded: potential iNOS inhibitory effect | 10.98 ± 0.07 | 23.6 ± 0.54 | 60.8 ± 1.75 | 261.6 ± 1.57
9 | COc1cccc(-c2nn(-c3ccccc3)cc2-c2ccnc(NCCCNS(=O)(=O)c3ccccc3)c2)c1 [Compound 2a, N-(3-((4-(3-(3-Methoxyphenyl)-1-phenyl-1H-pyrazol-4-yl)pyridin-2-yl)amino)propyl)benzenesulfonamide] |  | 4.87 ± 0.44 | 8.04 ± 0.09 | 119 to 120 |  |  | 31.1 ± 1.14 | > 50 | 76.9 ± 4.99 |  | 0.17 ± 0.03 | 30.2 ± 0.27 | 62.8 ± 3.25 | 346 ± 4.21
10 | COc1cccc(-c2nn(-c3ccccc3)cc2-c2ccnc(NCCCNS(=O)(=O)c3ccc(Cl)cc3)c2)c1 [Compound 2c, 4-Chloro-N-(3-((4-(3-(3-methoxyphenyl)-1-phenyl-1H-pyrazol-4-yl)pyridin-2-yl)amino)propyl)benzenesulfonamide] |  | 4.68 ± 0.37 | 8.68 ± 0.22 | 98 to 100 |  |  | 17.5 ± 1.51 | > 50 | 81.4 ± 2.94 |  | 0.02 ± 0.01 | 24.7 ± 0.81 | 59.1 ± 0.93 | 289.9 ± 1.87
11 | O=S(=O)(NCCNc1cc(-c2cn(-c3ccccc3)nc2-c2cccc(O)c2)ccn1)c1ccc(F)cc1 [Compound 3d, 4-Fluoro-N-(2-((4-(3-(3-hydroxyphenyl)-1-phenyl-1H-pyrazol-4-yl)pyridin-2-yl)amino)ethyl)benzenesulfonamide] |  |  | 10.7 ± 0.52 | 106 to 108 |  |  |  |  |  |  | 10.58 ± 0.09 | 18.3 ± 0.26 | 48.2 ± 0.74 | 26.6 ± 0.47
12 | Cc1ccc(S(=O)(=O)NCCNc2cc(-c3cn(-c4ccccc4)nc3-c3cccc(O)c3)ccn2)cc1 [Compound 3e, N-(2-((4-(3-(3-Hydroxyphenyl)-1-phenyl-1H-pyrazol-4-yl)pyridin-2-yl)amino)ethyl)-4-methylbenzenesulfonamide] |  |  | 16.1 ± 0.72 | 114 to 116 |  |  |  |  |  |  | 7.15 ± 0.04 | 12.4 ± 0.72 | 31.4 ± 0.33 | 32.5 ± 0.75
13 | O=S(=O)(NCCNc1cc(-c2cn(-c3ccccc3)nc2-c2cccc(O)c2)ccn1)c1cccc(F)c1 [Compound 3g, 3-Fluoro-N-(2-((4-(3-(3-hydroxyphenyl)-1-phenyl-1H-pyrazol-4-yl)pyridin-2-yl)amino)ethyl)benzenesulfonamide] |  |  | 21.42 ± 0.17 | 146 to 148 |  |  |  |  |  |  | 16.2 ± 0.17 | 19.1 ± 0.89 | 37.7 ± 0.85 | 28.7 ± 0.74
